Assay results: US20170022171A1, “2,5-DISUBSTITUTED CYCLOPENTANECARBOXYLIC ACIDS AND THEIR USE” (Bayer Pharma Aktiengesellschaft, priority 2014, published 2017)

Key:
Format in all cases: biochemical
mouse MMP-2 = biological target: T1, mouse MMP-2 (Mus musculus, UniProt P33434); test: In vitro mouse MMP-2 inhibition test
T1 construct: purchased R&D Systems 924-MP

mouse MMP-3 = biological target: T2, mouse MMP-3 (Mus musculus, UniProt P28862); test: In vitro mouse MMP-3 inhibition test
T2 construct: purchased R&D Systems 548-MP

mouse MMP-7 = biological target: T3, mouse MMP-7 (Mus musculus, UniProt Q10738); test: In vitro mouse MMP-7 inhibition test
T3 construct: purchased R&D Systems 2967-MP
T3 sequence (Q10738 95-264): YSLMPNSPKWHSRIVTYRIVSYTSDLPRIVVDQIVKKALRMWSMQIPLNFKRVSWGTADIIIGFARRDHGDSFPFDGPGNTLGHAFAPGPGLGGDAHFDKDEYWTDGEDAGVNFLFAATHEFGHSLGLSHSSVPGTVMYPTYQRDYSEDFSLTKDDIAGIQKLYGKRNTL

mouse MMP-8 = biological target: T4, mouse MMP-8 (Mus musculus, UniProt O70138); test: In vitro mouse MMP-8 inhibition test
T4 construct: purchased R&D Systems 2904-MP
T4 sequence (O70138 101-465): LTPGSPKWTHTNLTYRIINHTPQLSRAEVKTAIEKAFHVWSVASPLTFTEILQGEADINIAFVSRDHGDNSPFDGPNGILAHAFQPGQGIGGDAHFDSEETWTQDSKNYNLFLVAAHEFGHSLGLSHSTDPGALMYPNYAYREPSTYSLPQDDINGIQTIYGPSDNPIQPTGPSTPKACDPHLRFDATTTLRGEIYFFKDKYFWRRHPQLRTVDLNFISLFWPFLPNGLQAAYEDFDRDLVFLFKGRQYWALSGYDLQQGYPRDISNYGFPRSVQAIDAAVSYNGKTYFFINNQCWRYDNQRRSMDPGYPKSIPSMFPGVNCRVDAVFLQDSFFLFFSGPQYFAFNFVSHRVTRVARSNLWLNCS

T2 sequence (P28862 100-477): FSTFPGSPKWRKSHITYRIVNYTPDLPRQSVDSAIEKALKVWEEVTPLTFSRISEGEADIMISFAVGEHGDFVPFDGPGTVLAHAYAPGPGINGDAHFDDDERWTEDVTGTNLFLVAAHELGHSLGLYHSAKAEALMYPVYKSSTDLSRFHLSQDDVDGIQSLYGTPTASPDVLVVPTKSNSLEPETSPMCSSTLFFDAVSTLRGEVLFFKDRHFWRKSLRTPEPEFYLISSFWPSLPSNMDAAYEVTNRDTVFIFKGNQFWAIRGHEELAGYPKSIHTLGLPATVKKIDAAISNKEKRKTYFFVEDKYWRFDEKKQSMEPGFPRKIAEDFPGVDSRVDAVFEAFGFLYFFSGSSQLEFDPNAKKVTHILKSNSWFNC
T1 sequence (P33434 110-662): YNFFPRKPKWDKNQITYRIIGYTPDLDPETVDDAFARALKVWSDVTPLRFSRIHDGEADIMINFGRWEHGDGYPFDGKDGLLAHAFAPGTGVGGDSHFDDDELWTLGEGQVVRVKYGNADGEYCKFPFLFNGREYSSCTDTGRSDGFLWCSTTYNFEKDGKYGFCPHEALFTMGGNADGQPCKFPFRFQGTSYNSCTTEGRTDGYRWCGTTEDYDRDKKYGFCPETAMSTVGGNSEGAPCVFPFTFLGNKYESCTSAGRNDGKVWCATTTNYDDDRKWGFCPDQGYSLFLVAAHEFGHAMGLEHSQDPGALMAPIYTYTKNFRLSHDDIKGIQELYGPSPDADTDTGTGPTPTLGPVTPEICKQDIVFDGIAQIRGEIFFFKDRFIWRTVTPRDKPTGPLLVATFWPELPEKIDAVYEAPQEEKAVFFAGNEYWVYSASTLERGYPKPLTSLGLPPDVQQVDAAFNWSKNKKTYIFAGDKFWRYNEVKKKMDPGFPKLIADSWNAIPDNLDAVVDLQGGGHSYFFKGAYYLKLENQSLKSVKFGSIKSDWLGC

| Compound | IC50 (mouse MMP-2) | IC50 (mouse MMP-3) | IC50 (mouse MMP-7) | IC50 (mouse MMP-8) |
| --- | --- | --- | --- | --- |
| Cc1ccc2nnn(C[C@H]3CC[C@@H](C(=O)c4ccc(OCC5CCCCC5)cc4)[C@@H]3C(=O)O)c(=O)c2c1 (single isomer, unassigned) [Example 117, (+)-(1RS,2RS,5SR)-2-[4-(Cyclohexylmethoxy)benzoyl]-5-[(6-methyl-4-oxo-1,2,3-benzotriazin-3(4H)-yl)methyl]cyclopentanecarboxylic acid] | 130 nM | 470 nM | 16 nM | 13 nM |
| O=C(O)[C@H]1[C@H](Cn2nnc3ccc(C(F)(F)F)cc3c2=O)CC[C@@H]1C(=O)c1ccc(OCCCC2CCCCC2)cc1 (racemic) [Example 56, (+/−)-(1RS,2RS,5SR)-2-{4-(3-Cyclohexylpropoxy)benzoyl}-5-{[4-oxo-6-(trifluoromethyl)-1,2,3-benzotriazin-3(4H)-yl]methyl}cyclopentanecarboxylic acid] | 5000 nM | > 40000 nM | 990 nM | 1100 nM |
| O=C(O)[C@H]1[C@H](Cn2nnc3ccccc3c2=O)CC[C@@H]1C(=O)c1ccc(OCc2ccc(F)cc2)cc1 (racemic) [Example 1, (+/−)-(1RS,2RS,5SR)-2-{4-[(4-Fluorobenzyl)oxy]benzoyl}-5-[(4-oxo-1,2,3-benzotriazin-3(4H)-yl)methyl]cyclopentanecarboxylic acid] | 14 nM | 160 nM | 46 nM | 18 nM |
